Measurements: ChEMBL document CHEMBL1134503, “Synthesis, antifolate, and antitumor activities of classical and nonclassical 2-amino-4-oxo-5-substituted-pyrrolo[2,3-d]pyrimidines” (J Med Chem, 2001)

Tests used:
Dihydrofolate reductase [1] = target: T1, Dihydrofolate reductase (Pneumocystis carinii, UniProt P16184); experiment: Inhibitory activity against Pneumocystis carinii dihydrofolate reductase
T1 sequence (P16184 whole entry): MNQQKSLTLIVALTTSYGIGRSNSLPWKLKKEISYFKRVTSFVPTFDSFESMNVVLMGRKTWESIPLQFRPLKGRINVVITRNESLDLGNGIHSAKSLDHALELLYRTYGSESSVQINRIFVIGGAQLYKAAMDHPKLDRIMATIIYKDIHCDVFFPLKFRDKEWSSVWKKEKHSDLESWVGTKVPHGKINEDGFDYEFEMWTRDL

[2] = target: T2, Bifunctional dihydrofolate reductase-thymidylate synthase (Toxoplasma gondii, UniProt Q07422); experiment: Inhibitory activity against Toxoplasma gondii dihydrofolate reductase
T2 sequence (Q07422 whole entry): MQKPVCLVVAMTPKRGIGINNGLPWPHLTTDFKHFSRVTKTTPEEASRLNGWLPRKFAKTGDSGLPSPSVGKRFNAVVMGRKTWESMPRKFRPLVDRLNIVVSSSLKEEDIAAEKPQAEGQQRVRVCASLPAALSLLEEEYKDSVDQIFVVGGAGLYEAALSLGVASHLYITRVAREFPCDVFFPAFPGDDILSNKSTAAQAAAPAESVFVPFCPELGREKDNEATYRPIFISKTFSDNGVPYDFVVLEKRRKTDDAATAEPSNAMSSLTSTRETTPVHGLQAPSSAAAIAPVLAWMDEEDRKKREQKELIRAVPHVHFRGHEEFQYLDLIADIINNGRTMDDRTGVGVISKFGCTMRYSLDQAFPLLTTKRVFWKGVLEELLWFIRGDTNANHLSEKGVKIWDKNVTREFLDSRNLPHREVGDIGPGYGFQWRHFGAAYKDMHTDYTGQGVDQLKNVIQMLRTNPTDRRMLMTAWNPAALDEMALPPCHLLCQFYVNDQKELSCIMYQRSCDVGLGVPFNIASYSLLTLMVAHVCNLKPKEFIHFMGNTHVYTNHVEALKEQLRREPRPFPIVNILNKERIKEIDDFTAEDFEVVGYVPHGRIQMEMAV

Dihydrofolate reductase [3] = target: T3, Dihydrofolate reductase (Rattus norvegicus, UniProt Q920D2); experiment: Inhibition of rat liver dihydrofolate reductase
T3 sequence (Q920D2 whole entry): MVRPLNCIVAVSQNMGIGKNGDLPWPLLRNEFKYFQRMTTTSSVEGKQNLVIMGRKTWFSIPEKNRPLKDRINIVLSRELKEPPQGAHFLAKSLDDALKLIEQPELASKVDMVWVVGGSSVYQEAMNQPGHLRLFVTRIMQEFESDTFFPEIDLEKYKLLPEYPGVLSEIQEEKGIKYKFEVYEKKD

[4] = target: Dihydrofolate reductase; T. gondii vs rat (Toxoplasma gondii) (UniProt Q920D2+Q07422); experiment: Ratio of binding to rat liver and Toxoplasma gondii dihydrofolate reductase
CCRF-CEM [5] = experiment: Growth inhibition of parental CCRF-CEM cells.; type: functional, cell-based; details: Homo sapiens
CCRF-CEM [6] = experiment: Growth inhibition of […], defined mechanisms of MTX resistance during continuous (0-120 h) exposure; type: functional, cell-based; details: Homo sapiens
CCRF-CEM [7] = experiment: Growth inhibition of CCRF-CEM cells resistant to MTX; type: functional, cell-based; details: Homo sapiens
FaDu [8] = experiment: Relative growth inhibition of FaDu cells at 9 uM drug concentration and in presence of thymidine and hypoxanthine.; type: functional, Homo sapiens
FaDu [9] = experiment: Relative growth inhibition of FaDu cells in absence of metabolite at 9 uM concentration.; type: functional, Homo sapiens
FaDu [10] = experiment: Growth inhibition of FaDu human head and neck squamous cell carcinoma cell lines.; type: functional, cell-based
FaDu [11] = experiment: Relative growth inhibition of FaDu cells at 9 uM drug concentration and in presence of 10 uM Leucovorin.; type: functional, Homo sapiens
FaDu [12] = experiment: Relative growth inhibition of FaDu cells at 9 uM drug concentration and in presence of 40 uM Thymidine.; type: functional, Homo sapiens
FaDu [13] = experiment: Relative growth inhibition of FaDu cells at 9 uM drug concentration and in presence of 50 uM Hypoxanthine.; type: functional, Homo sapiens
Thymidylate synthase [14] = target: Thymidylate synthase (Escherichia coli, UniProt C3SWJ7); experiment: Inhibitory activity against Escherichia coli thymidylate synthase
Sequence of Thymidylate synthase (Escherichia coli, UniProt C3SWJ7) (C3SWJ7 whole entry): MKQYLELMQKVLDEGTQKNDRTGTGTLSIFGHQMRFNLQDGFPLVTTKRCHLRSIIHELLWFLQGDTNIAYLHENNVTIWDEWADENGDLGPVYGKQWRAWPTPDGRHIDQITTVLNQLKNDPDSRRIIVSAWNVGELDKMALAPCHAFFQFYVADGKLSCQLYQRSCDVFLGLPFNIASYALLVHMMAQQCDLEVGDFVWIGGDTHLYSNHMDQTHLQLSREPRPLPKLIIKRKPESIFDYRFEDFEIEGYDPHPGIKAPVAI

Thymidylate synthase [15] = target: Thymidylate synthase (Homo sapiens, UniProt P04818); experiment: Inhibitory activity against human thymidylate synthase
Sequence of Thymidylate synthase (Homo sapiens, UniProt P04818) (P04818 whole entry): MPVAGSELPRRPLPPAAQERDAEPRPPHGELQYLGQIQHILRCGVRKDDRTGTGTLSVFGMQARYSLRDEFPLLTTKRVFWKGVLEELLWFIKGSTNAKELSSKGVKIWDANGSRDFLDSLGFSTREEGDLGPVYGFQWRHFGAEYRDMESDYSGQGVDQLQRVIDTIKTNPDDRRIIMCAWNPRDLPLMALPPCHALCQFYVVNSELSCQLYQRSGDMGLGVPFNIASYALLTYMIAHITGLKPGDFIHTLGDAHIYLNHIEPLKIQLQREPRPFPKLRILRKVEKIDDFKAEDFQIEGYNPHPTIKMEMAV

CCRF-CEM [16] = experiment: Growth inhibition of DHFR-overexpressing cells, defined mechanisms of MTX resistance during continuous (0-120 h) exposure; type: functional, cell-based; details: Homo sapiens
A253 cell line = experiment: Growth inhibition of A253 cell lines.; type: functional, cell-based; details: Homo sapiens
Dihydrofolate reductase [17] = target: T4, Dihydrofolate reductase (Homo sapiens, UniProt P00374)
T4 sequence (P00374 whole entry): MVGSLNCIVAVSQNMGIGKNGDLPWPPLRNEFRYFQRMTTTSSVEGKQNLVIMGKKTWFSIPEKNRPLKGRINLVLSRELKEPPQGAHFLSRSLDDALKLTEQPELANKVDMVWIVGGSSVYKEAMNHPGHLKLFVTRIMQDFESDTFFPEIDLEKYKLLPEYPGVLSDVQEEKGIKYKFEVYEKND
Description: Inhibitory activity against human dihydrofolate reductase

Compound | IC50 (Dihydrofolate reductase [1]) | IC50 (Dihydrofolate reductase [3]) | IC50 [2] | Ratio [4] | also measured
COc1ccc(OC)c(N(C)Cc2c[nH]c3nc(N)nc(O)c23)c1 |  |  |  | > 6 | 
Nc1nc(O)c2c(CNc3ccc(Cl)cc3Cl)c[nH]c2n1 |  |  |  | > 7 | 
Nc1nc(O)c2c(CNc3ccc(C(=O)N[C@@H](CCC(=O)O)C(=O)O)cc3)c[nH]c2n1 |  |  | 0.8 µM |  | EC50 (CCRF-CEM [5]): 0.08 µM; EC50 (CCRF-CEM [6]): 0.31 µM; EC50 (CCRF-CEM [7]): 0.12 µM; Relative growth (FaDu [8]): 79; Relative growth (FaDu [9]): 5; EC50 (FaDu [10]): 0.8 µM; Relative growth (FaDu [11]): 64; Relative growth (FaDu [12]): 74; Relative growth (FaDu [13]): 5; IC50 (Thymidylate synthase [14]): > 120 µM; IC50 (Thymidylate synthase [15]): 46 µM; EC50 (CCRF-CEM [16]): 0.2 µM; EC50 (A253 cell line): 1 µM; IC50 (Dihydrofolate reductase [17]): 10 µM
COc1ccc(NCc2c[nH]c3nc(N)nc(O)c23)c(OC)c1 | > 16 µM | 16 µM |  | > 2.3 | 
COc1ccc(OC)c(NCc2c[nH]c3nc(N)nc(O)c23)c1 | > 47 µM | 47 µM |  | > 21 | EC50 (CCRF-CEM [5]): 0.23 µM; EC50 (CCRF-CEM [6]): 1.53 µM; EC50 (CCRF-CEM [7]): 0.46 µM; EC50 (FaDu [10]): > 10 µM; EC50 (CCRF-CEM [16]): 0.42 µM; EC50 (A253 cell line): > 10 µM
COc1cc(N(C)Cc2c[nH]c3nc(N)nc(O)c23)cc(OC)c1OC |  |  |  | > 2 | 
COc1cc(NCc2c[nH]c3nc(N)nc(O)c23)cc(OC)c1OC | > 22 µM | 22 µM | 9.3 µM | > 2.4 | 
Nc1nc2[nH]cc(CCc3ccc(C(=O)N[C@@H](CCC(=O)O)C(=O)O)cc3)c2c(=O)[nH]1 [PEMETREXED] |  |  |  |  | IC50 (Thymidylate synthase [15]): 5.7 µM
Nc1nc(O)c2c(CNc3cccc(Cl)c3)c[nH]c2n1 |  |  |  | > 7 | 
Nc1nc(O)c2c(CNc3cc(Cl)cc(Cl)c3)c[nH]c2n1 |  |  |  | > 15.4 | 
CN(Cc1cnc2nc(N)nc(N)c2n1)c1ccc(C(=O)N[C@@H](CCC(=O)O)C(=O)O)cc1 [METHOTREXATE] |  |  |  |  | EC50 (A253 cell line): 0.019 µM
Nc1nc(O)c2c(CNc3cc(Cl)ccc3Cl)c[nH]c2n1 | > 25 µM | 25 µM | 0.66 µM | > 38 | 
COc1cc(NCc2c[nH]c3nc(N)nc(O)c23)cc(OC)c1 |  |  |  | > 8 | 

More lines, main results first:

IC50 (Dihydrofolate reductase [1]) | IC50 (Dihydrofolate reductase [3]) | Compound | IC50 [2] | Ratio [4] | also measured
> 87 µM | 87 µM | COc1cc(OC)cc(N(C)Cc2c[nH]c3nc(N)nc(O)c23)c1 | 4.2 µM | > 21 | 
> 45 µM | 45 µM | COc1cc(N(C)Cc2c[nH]c3nc(N)[nH]c(=O)c23)cc(OC)c1OC | 37 µM |  | 
> 26 µM | 26 µM | Nc1nc2[nH]cc(CNc3cccc(Cl)c3)c2c(=O)[nH]1 |  |  | 
> 15 µM | 15 µM | Nc1nc2[nH]cc(CNc3ccc(Cl)cc3Cl)c2c(=O)[nH]1 |  |  | 
 | 63 µM | Nc1nc2[nH]cc(CNc3cc(Cl)cc(Cl)c3)c2c(=O)[nH]1 | 4.1 µM |  | 
> 20 µM | 20 µM | COc1cc(NCc2c[nH]c3nc(N)[nH]c(=O)c23)cc(OC)c1 |  |  | 
> 56 µM | 56 µM | COc1ccc(OC)c(N(C)Cc2c[nH]c3nc(N)[nH]c(=O)c23)c1 | 10.3 µM |  | 
